In US20200264182A1, “METHOD FOR DETECTING PROSTATE CANCER” (J-OIL MILLS, INC., priority 2017, published 2020):

Assays:
[1] = tested on: serum fucosylated PSA; assay: Sandwich ELISA, anti-PSA antibody and biotin-labeled lectin; format: binding, human; settings: for Δ (=A − B): reaction value of Prostate cancer 4 minus Healthy 1; for lectin reaction value B of Healthy 1: serum of Healthy 1; for lectin reaction value A of Prostate cancer 4: serum of Prostate cancer 4, GS 6 (3 + 3)
Experimental: The anti-PSA antibody from which sugar chains had been removed was diluted to 5 μg/mL with PBS. 25 μL of this diluted solution was added to each well of an ELISA plate and allowed to stand at 37° C. for 12 hours, and then the additive solution was discarded.
150 μL of PBS containing 0.05% Tween 20 (product name: polyoxyethylene sorbitan monolaurate, from Nacalai Tesque, Inc.) was added to each well, and then the additive solution was discarded. This manipulation was repeated three times in total.
25 μL of 1% BSA/PBS was added to each well and allowed to stand at 37° C. for 1 hour, and then the additive solution was discarded.
150 μL of PBS containing 0.05% Tween 20 was added to each well, and then the additive solution was discarded. This manipulation was repeated three times in total.
To graph a calibration curve, 25 μL of the fucosylated PSA reference standard diluted with 1% BSA/PBS to a concentration of 0 to 200 ng/mL was added to each well and allowed to stand at room temperature for 1 hour, and then the additive solution was discarded. In addition, to detect the fucosylated PSA in the serum of the subject by the lectin, 25 μL of serum of “Healthy 1” and “Prostate cancer 4” 2-fold diluted with PBS was added to each well and allowed to stand at room temperature for 1 hour, and then the additive solution was discarded.
In Reference Example 1, 25 μL of a biotin-labeled PhoSL diluted to 0.1 μg/mL with 0.1% BSA/PBS (pH 7.4) was added to each well and allowed to stand at 4° C. for 30 minutes, and then the additive solution was discarded. In Example 1, 25 μL of a biotin-labeled PhoSL diluted to 0.1 μg/mL with 0.1% BSA/10-fold diluted PBS+glycine-NaOH (pH 9.6) was added to each well and allowed to stand at 4° C. for 30 minutes, and then the additive solution was discarded.
25 μL of a horseradish peroxidase (HRP)-labeled streptavidin solution (from Vector Laboratories, Inc., concentration: 0.4 μg/mL, in 1% BSA/PBS) was added to each well and allowed to stand at room temperature for 30 minutes, and then the additive solution was discarded.
25 μL of chromogenic substrate for HRP (product name: TMB, from Kirkegaard & Perry Laboratories, Inc.) was added to each well and allowed to stand at room temperature for 10 minutes.
25 μL of 1M phosphoric acid was added to terminate the reaction.
Absorbance (Ab) at 450 nm and 630 nm was measured using a plate reader, and a measurement (Ab450-630) was obtained.
A calibration curve was graphed by plotting signals (reaction values, Ab450-630) of the fucosylated PSA reference standard with the biotin-labeled PhoSL. A Signal (Ab450-630) of the biotin-labeled PhoSL corresponding to the fucosylated PSA concentration of 10 ng/mL was defined as 10 U/mL.
The signals of biotin-labeled PhoSL (Ab450-630) for the serum fucosylated PSA in the subject samples A were assigned to the calibration curve to calculate reaction values (unit: U/mL).
The PhoSL reaction values for the subject samples A were measured by the same operation as in Example 1. From the PhoSL reaction values, an average value and a median value were determined. Furthermore, a standard cutoff value (89.7 U/mL) was used to determine a detection rate (positive rate) of the prostate cancer patients, and a false detection rate (false positive rate) of the healthy persons.
Comparative Example 2 in Table 9 indicates results of detecting the serum fucosylated PSA using AAL (AAL reaction values) in the subject samples A. Specifically, in Reference Example 1, AAL reaction values were measured in the same manner as in Reference Example 1 except that the biotin-labeled PhoSL was replaced with a biotin-labeled AAL. A standard cut-off value for the AAL reaction values was 894.8 U/mL. As in Example 2, an average value, a median value, a positive rate and a false positive rate were determined from the AAL reaction values.

[2] = FAC binding constant; settings: at 25° C.
Experimental: (§1) Details of the FAC method are described in Patent Document 2 filed by some of the present applicants, for example.
(§2) Binding constants (at 25° C.) of PhoSL, SRL, NSL and LSL belonging to the fucose α1→6 specific lectin for various sugar chains are shown in Tables 2 to 5.

[3] = FAC binding constant (Table 5 entry); settings: Table 5: sugar chain having no fucose; at 25° C.
Experimental: as §1, §2

[4] = sugar chain having fucose other than α1→6 fucose

NSL: fucose α1→6 specific lectin that can be extracted from Naematoloma sublateritium, SEQ ID No. 4 or 5
177.7 U/mL: lectin reaction value B of Healthy 1 ([1]; pH in lectin reaction 7.4)
23000 M⁻¹: Binding constant for sugar chain No. 406 ([2]; sugar chain having α1→6 fucose)
30000 M⁻¹: Binding constant for sugar chain No. 203 ([2]; sugar chain having α1→6 fucose)
42.3 U/mL: lectin reaction value B of Healthy 1 ([1]; pH in lectin reaction 9.6)
51000 M⁻¹: Binding constant for sugar chain No. 401 ([2]; sugar chain having α1→6 fucose)
399.7 U/mL: lectin reaction value A of Prostate cancer 4 ([1]; pH in lectin reaction 7.4)
280000 M⁻¹: Binding constant for sugar chain No. 413 ([2]; sugar chain having α1→6 fucose)
50000 M⁻¹: Binding constant for sugar chain No. 405 ([2]; sugar chain having α1→6 fucose)
222 U/mL: Δ (=A − B) ([1]; pH in lectin reaction 7.4)
282.6 U/mL: lectin reaction value A of Prostate cancer 4 ([1]; pH in lectin reaction 9.6)
240.3 U/mL: Δ (=A − B) ([1]; pH in lectin reaction 9.6)
43000 M⁻¹: Binding constant for sugar chain No. 404 ([2]; sugar chain having α1→6 fucose)
38000 M⁻¹: Binding constant for sugar chain No. 201 ([2]; sugar chain having α1→6 fucose)
120000 M⁻¹: Binding constant for sugar chain No. 602 ([2]; sugar chain having α1→6 fucose)
220000 M⁻¹: Binding constant for sugar chain No. 410 ([2]; sugar chain having α1→6 fucose) | Binding constant for sugar chain No. 418 ([2]; sugar chain having α1→6 fucose)
39000 M⁻¹: Binding constant for sugar chain No. 202 ([2]; sugar chain having α1→6 fucose)
52000 M⁻¹: Binding constant for sugar chain No. 403 ([2]; sugar chain having α1→6 fucose)
<1000 M⁻¹: Binding constant for sugar chain No. 728 ([2]; Table 3: sugar chain having fucose other than α1→6 fucose) | Binding constant for sugar chain No. 419 [2, 4] | Binding constant for sugar chain No. 420 [2, 4] | Binding constant for sugar chain No. 718 [2, 4] | Binding constant for sugar chain No. 719 [2, 4] | Binding constant for sugar chain No. 720 [2, 4] | Binding constant for sugar chain No. 721 [2, 4] | Binding constant for sugar chain No. 722 [2, 4] | Binding constant for sugar chain No. 723 [2, 4] | Binding constant for sugar chain No. 726 [2, 4] | Binding constant for sugar chain No. 727 [2, 4] | Binding constant for sugar chain No. 729 [2, 4] | Binding constant for sugar chain No. 730 [2, 4] | Binding constant for sugar chain No. 731 [2, 4] | Binding constant for sugar chain No. 739 [2, 4] | Binding constant for sugar chain No. 909 [2, 4] | Binding constant for sugar chain No. 910 [2, 4] | Binding constant for sugar chain No. 931 [2, 4] | Binding constant for sugar chain No. 932 [2, 4] | Binding constant for sugar chain No. 933 [2, 4] | Binding constant for sugar chain No. 001 ([2]; sugar chain having no fucose) | Binding constant for sugar chain No. 002 ([2]; sugar chain having no fucose) | Binding constant for sugar chain No. 003 ([2]; sugar chain having no fucose) | Binding constant for sugar chain No. 004 ([2]; sugar chain having no fucose) | Binding constant for sugar chain No. 005 ([2]; sugar chain having no fucose) | Binding constant for sugar chain No. 006 ([2]; sugar chain having no fucose) | Binding constant for sugar chain No. 007 ([2]; sugar chain having no fucose) | Binding constant for sugar chain No. 008 ([2]; sugar chain having no fucose) | Binding constant for sugar chain No. 009 ([2]; sugar chain having no fucose) | Binding constant for sugar chain No. 010 ([2]; sugar chain having no fucose) | Binding constant for sugar chain No. 011 ([2]; sugar chain having no fucose) | Binding constant for sugar chain No. 012 ([2]; sugar chain having no fucose) | Binding constant for sugar chain No. 013 ([2]; sugar chain having no fucose) | Binding constant for sugar chain No. 014 ([2]; sugar chain having no fucose) | Binding constant for sugar chain No. 101 ([2]; sugar chain having no fucose) | Binding constant for sugar chain No. 103 ([2]; sugar chain having no fucose) | Binding constant for sugar chain No. 104 ([2]; sugar chain having no fucose) | Binding constant for sugar chain No. 105 ([2]; sugar chain having no fucose) | Binding constant for sugar chain No. 107 ([2]; sugar chain having no fucose) | Binding constant for sugar chain No. 108 ([2]; sugar chain having no fucose) | Binding constant for sugar chain No. 301 ([2]; sugar chain having no fucose) | Binding constant for sugar chain No. 304 ([2]; sugar chain having no fucose) | Binding constant for sugar chain No. 305 ([2]; sugar chain having no fucose) | Binding constant for sugar chain No. 307 ([2]; sugar chain having no fucose) | Binding constant for sugar chain No. 308 ([2]; sugar chain having no fucose) | Binding constant for sugar chain No. 313 ([2]; sugar chain having no fucose) | Binding constant for sugar chain No. 314 ([2]; sugar chain having no fucose) | Binding constant for sugar chain No. 323 ([2]; sugar chain having no fucose) | Binding constant for sugar chain No. 501 ([2]; sugar chain having no fucose) | Binding constant for sugar chain No. 502 ([2]; sugar chain having no fucose) | Binding constant for sugar chain No. 503 ([2]; sugar chain having no fucose) | Binding constant for sugar chain No. 504 ([2]; sugar chain having no fucose) | Binding constant for sugar chain No. 701 ([2]; sugar chain having no fucose) | Binding constant for sugar chain No. 702 ([2]; sugar chain having no fucose) | Binding constant for sugar chain No. 703 ([2]; sugar chain having no fucose) | Binding constant for sugar chain No. 704 ([2]; sugar chain having no fucose) | Binding constant for sugar chain No. 705 ([2]; sugar chain having no fucose) | Binding constant for sugar chain No. 706 ([2]; sugar chain having no fucose) | Binding constant for sugar chain No. 707 ([2]; sugar chain having no fucose) | Binding constant for sugar chain No. 708 ([2]; sugar chain having no fucose) | Binding constant for sugar chain No. 709 ([2]; sugar chain having no fucose) | Binding constant for sugar chain No. 710 ([2]; sugar chain having no fucose) | Binding constant for sugar chain No. 711 ([2]; sugar chain having no fucose) | Binding constant for sugar chain No. 712 ([2]; sugar chain having no fucose) | Binding constant for sugar chain No. 713 ([2]; sugar chain having no fucose) | Binding constant for sugar chain No. 715 ([2]; sugar chain having no fucose) | Binding constant for sugar chain No. 716 ([2]; sugar chain having no fucose) | Binding constant for sugar chain No. 717 ([2]; sugar chain having no fucose) | Binding constant for sugar chain No. 724 ([2]; sugar chain having no fucose) | Binding constant for sugar chain No. 725 ([2]; sugar chain having no fucose) | Binding constant for sugar chain No. 732 ([2]; sugar chain having no fucose) | Binding constant for sugar chain No. 733 ([2]; sugar chain having no fucose) | Binding constant for sugar chain No. 734 ([2]; sugar chain having no fucose) | Binding constant for sugar chain No. 735 ([2]; sugar chain having no fucose) | Binding constant for sugar chain No. 736 ([2]; sugar chain having no fucose) | Binding constant for sugar chain No. 737 ([2]; sugar chain having no fucose) | Binding constant for sugar chain No. 738 ([2]; sugar chain having no fucose) | Binding constant for sugar chain No. 901 ([2]; sugar chain having no fucose) | Binding constant for sugar chain No. 902 ([2]; sugar chain having no fucose) | Binding constant for sugar chain No. 903 ([2]; sugar chain having no fucose) | Binding constant for sugar chain No. 905 ([2]; sugar chain having no fucose) | Binding constant for sugar chain No. 906 ([2]; sugar chain having no fucose) | Binding constant for sugar chain No. 907 ([2]; sugar chain having no fucose) | Binding constant for sugar chain No. 728 [3]
240000 M⁻¹: Binding constant for sugar chain No. 601 ([2]; sugar chain having α1→6 fucose)
36000 M⁻¹: Binding constant for sugar chain No. 015 ([2]; sugar chain having α1→6 fucose) | Binding constant for sugar chain No. 402 ([2]; sugar chain having α1→6 fucose)
